What was measured:
Experiment in all cases: HIV-1 RT Assay
[1] = target: T1, Gag-Pol polyprotein [588-1027,K690N]/[588-1147,K690N] (Human immunodeficiency virus 1, UniProt P04585, K690N)
T1 construct: 588-1027; 588-1147
Description: (§1) The IC50 of reverse transcriptase is the concentration that inhibits 50% of recombinant HIV-1 RT RNA-directed DNA polymerase activity in vitro.

[2] = target: T2, Gag-Pol polyprotein [588-1027]/[588-1147] (Human immunodeficiency virus 1, UniProt P04585)
T2 construct: 588-1027; 588-1147
Description: as §1

[3] = target: T3, Gag-Pol polyprotein [588-1127,Y768C]/[588-1147,Y768C] (Human immunodeficiency virus 1, UniProt P04585, Y768C)
T3 construct: 588-1127; 588-1147
Description: as §1

## COc1cccc(S(=O)(=O)/N=c2\sc(C(C)(C)C)c(C)n2C)c1 [N-[(2Z)-5-tert-butyl-3,4-dimethyl-2,3-dihydro-1,3-thiazol-2-ylidene]-3-methoxybenzene-1-sulfonamide]
[1]
  IC50: > 50 µM
[2]
  IC50: 8.8 µM

## Cc1c(C(C)(C)C)s/c(=N\S(=O)(=O)c2cc(Cl)ccc2C#N)n1C [N-(5-tert-Butyl-3,4-dimethyl-1,3-thiazol-2(3H)-ylidene)-5-chloro-2-cyanobenzenesulfonamide]
[1]
  IC50: > 50 µM
[3]
  IC50: 0.069 µM
[2]
  IC50: 0.18 µM

## Cc1c(C(C)(C)C)s/c(=N\S(=O)(=O)c2ccc(Cl)cc2)n1C [N-(5-tert-Butyl-3,4-dimethyl-1,3-thiazol-2(3H)-ylidene)-4-chlorobenzenesulfonamide]
[1]; pH 8.4, 37 °C
  IC50: > 10 µM
[3]; pH 8.4, 37 °C
  IC50: > 10 µM
[2]; pH 8.4, 37 °C
  IC50: > 10 µM

## CC(C)c1s/c(=N\S(=O)(=O)c2cc(Br)ccc2O)n(C)c1Cl [5-bromo-N-[(2Z)-4-chloro-3-methyl-5-(propan-2-yl)-2,3-dihydro-1,3-thiazol-2-ylidene]-2-hydroxybenzene-1-sulfonamide]
[1]
  IC50: 0.043 µM
[3]
  IC50: 0.013 µM
[2]
  IC50: 0.0043 µM

## Cc1c(C(C)(C)C)s/c(=N\S(=O)(=O)c2ccc([N+](=O)[O-])cc2)n1C [N-(5-tert-Butyl-3,4-dimethyl-1,3-thiazol-2(3H)-ylidene)-4-nitrobenzenesulfonamide]
[1]; pH 8.4, 37 °C
  IC50: > 10 µM
[3]; pH 8.4, 37 °C
  IC50: > 10 µM
[2]; pH 8.4, 37 °C
  IC50: > 10 µM

## Cc1c(C(C)(C)C)s/c(=N\S(=O)(=O)c2ccccc2O)n1C [N-[(2Z)-5-tert-butyl-3,4-dimethyl-2,3-dihydro-1,3-thiazol-2-ylidene]-2-hydroxybenzene-1-sulfonamide]
[1]
  IC50: 30 µM
[3]
  IC50: 0.41 µM
[2]
  IC50: 1.6 µM

## Cc1c(C(C)(C)C)s/c(=N\S(=O)(=O)c2cccc(O)c2)n1C [N-[(2Z)-5-tert-butyl-3,4-dimethyl-2,3-dihydro-1,3-thiazol-2-ylidene]-3-hydroxybenzene-1-sulfonamide]
[1]
  IC50: > 50 µM
[3]
  IC50: 14 µM
[2]
  IC50: 8.8 µM

## Cc1c(C(C)(C)C)s/c(=N\S(=O)(=O)c2cc(Cl)ccc2N)n1C [2-amino-N-[(2Z)-5-tert-butyl-3,4-dimethyl-2,3-dihydro-1,3-thiazol-2-ylidene]-5-chlorobenzene-1-sulfonamide]
[1]
  IC50: 17 µM
[3]
  IC50: 0.11 µM
[2]
  IC50: 0.19 µM

## Cc1c(C(C)(C)C)s/c(=N\S(=O)(=O)c2ccccc2)n1C
[1]
  IC50: > 50 µM
[3]
  IC50: 5.1 µM
[2]
  IC50: 4.9 µM

## Cc1c(C(C)(C)C)s/c(=N\S(=O)(=O)c2ccccc2Cl)n1C [N-[(2Z)-5-tert-butyl-3,4-dimethyl-2,3-dihydro-1,3-thiazol-2-ylidene]-2-chlorobenzene-1-sulfonamide]
[1]; pH 8.4, 37 °C
  IC50: > 10 µM
[3]; pH 8.4, 37 °C
  IC50: > 10 µM
[2]; pH 8.4, 37 °C
  IC50: > 10 µM

## Cc1c(C(C)(C)C)s/c(=N\S(=O)(=O)c2cc(Cl)ccc2C(N)=O)n1C [2-{[(5-tert-Butyl-3,4-dimethyl-1,3-thiazol-2(3H)-ylidene)amino]sulfonyl}-4-chlorobenzamide]
[1]
  IC50: > 10 µM
[3]
  IC50: > 10 µM
[2]
  IC50: > 10 µM

## CC(C)c1s/c(=N\S(=O)(=O)c2cc(Cl)ccc2C#N)n(C)c1Cl [5-Chloro-N-(4-chloro-5-isopropyl-3-methyl-1,3-thiazol-2(3H)-ylidene)-2-cyanobenzenesulfonamide]
[1]
  IC50: 3.7 µM
[3]
  IC50: 0.091 µM
[2]
  IC50: 0.009 µM

## Cc1c(C(C)C)s/c(=N\S(=O)(=O)c2cc(Br)ccc2C#N)n1C [5-Bromo-2-cyano-N-(5-isopropyl-3,4-dimethyl-1,3-thiazol-2(3H)-ylidene)benzenesulfonamide]
[1]
  IC50: 3.9 µM
[3]
  IC50: 0.26 µM
[2]
  IC50: 0.018 µM

## Cc1c(C(C)(C)C)s/c(=N\S(=O)(=O)c2cccc(Cl)c2O)n1C [N-[(2Z)-5-tert-butyl-3,4-dimethyl-2,3-dihydro-1,3-thiazol-2-ylidene]-3-chloro-2-hydroxybenzene-1-sulfonamide]
[1]
  IC50: > 50 µM
[2]
  IC50: 6.3 µM

## COc1ccc(S(=O)(=O)/N=c2\sc(C(C)(C)C)c(C)n2C)cc1 [N-(5-tert-Butyl-3,4-dimethyl-1,3-thiazol-2(3H)-ylidene)-4-methoxybenzenesulfonamide]
[1]
  IC50: > 10 µM
[3]
  IC50: > 10 µM
[2]
  IC50: > 10 µM

## CC(=O)Nc1ccc(Cl)cc1S(=O)(=O)/N=c1\sc(C(C)(C)C)c(C)n1C [N-(2-{[(5-tert-Butyl-3,4-dimethyl-1,3-thiazol-2(3H)-ylidene)amino]sulfonyl}-4-chlorophenyl)acetamide]
[1]
  IC50: > 50 µM
[3]
  IC50: > 50 µM
[2]
  IC50: > 50 µM

## Cc1c(C(C)(C)C)s/c(=N\S(=O)(=O)c2cc(Cl)ccc2[N+](=O)[O-])n1C [N-[(2Z)-5-tert-butyl-3,4-dimethyl-2,3-dihydro-1,3-thiazol-2-ylidene]-5-chloro-2-nitrobenzene-1-sulfonamide]
[1]
  IC50: > 50 µM
[2]
  IC50: 2.4 µM

## COC(=O)c1ccc(Cl)cc1S(=O)(=O)/N=c1\sc(C(C)(C)C)c(C)n1C [methyl 2-{[(2Z)-5-tert-butyl-3,4-dimethyl-2,3-dihydro-1,3-thiazol-2-ylidene]sulfamoyl}-4-chlorobenzoate]
[1]
  IC50: > 10 µM
[3]
  IC50: 10 µM
[2]
  IC50: > 10 µM

## Cc1c(C(C)C)s/c(=N\S(=O)(=O)c2cc(Cl)ccc2C#N)n1C [5-chloro-2-cyano-N-[(2Z)-3,4-dimethyl-5-(propan-2-yl)-2,3-dihydro-1,3-thiazol-2-ylidene]benzene-1-sulfonamide]
[1]
  IC50: 5.9 µM
[3]
  IC50: 0.2 µM
[2]
  IC50: 0.011 µM

## Cc1c(C(C)(C)C)s/c(=N\S(=O)(=O)c2cccc(Cl)c2)n1C [N-[(2Z)-5-tert-butyl-3,4-dimethyl-2,3-dihydro-1,3-thiazol-2-ylidene]-3-chlorobenzene-1-sulfonamide]
[1]; pH 8.4, 37 °C
  IC50: 11 µM
[3]; pH 8.4, 37 °C
  IC50: 0.044 µM
[2]; pH 8.4, 37 °C
  IC50: 0.3 µM

## Cc1c(C(C)(C)C)s/c(=N\S(=O)(=O)c2ccc(O)cc2)n1C [N-(5-tert-Butyl-3,4-dimethyl-1,3-thiazol-2(3H)-ylidene)-4-hydroxybenzenesulfonamide]
[1]
  IC50: > 10 µM
[3]
  IC50: > 10 µM
[2]
  IC50: > 10 µM

## CC(C)c1s/c(=N\S(=O)(=O)c2cc(Cl)ccc2O)n(C)c1Cl [5-chloro-N-[(2Z)-4-chloro-3-methyl-5-(propan-2-yl)-2,3-dihydro-1,3-thiazol-2-ylidene]-2-hydroxybenzene-1-sulfonamide]
[1]
  IC50: 0.17 µM
[3]
  IC50: 0.021 µM
[2]
  IC50: 0.0094 µM

## Cc1c(C(C)(C)C)s/c(=N\S(=O)(=O)c2ccccc2[N+](=O)[O-])n1C [N-[(2Z)-5-tert-butyl-3,4-dimethyl-2,3-dihydro-1,3-thiazol-2-ylidene]-2-nitrobenzene-1-sulfonamide]
[1]; pH 8.4, 37 °C
  IC50: > 50 µM
[3]; pH 8.4, 37 °C
  IC50: 36 µM
[2]; pH 8.4, 37 °C
  IC50: > 50 µM

## Cc1c(C(C)C)s/c(=N\S(=O)(=O)c2cc(F)ccc2C#N)n1C [2-cyano-N-[(2Z)-3,4-dimethyl-5-(propan-2-yl)-2,3-dihydro-1,3-thiazol-2-ylidene]-5-fluorobenzene-1-sulfonamide]
[1]
  IC50: > 10 µM
[3]
  IC50: 2.1 µM
[2]
  IC50: 0.092 µM

## Cc1c(C(C)C)s/c(=N\S(=O)(=O)c2cc(C#N)ccc2C#N)n1C [thiazolidenebenzenesulfonamide deriv.]
[1]
  IC50: 4.1 µM
[3]
  IC50: 0.47 µM
[2]
  IC50: 0.012 µM

## Cc1c(C(C)(C)C)s/c(=N\S(=O)(=O)c2cc(Cl)ccc2NS(C)(=O)=O)n1C [N-[(2Z)-5-tert-butyl-3,4-dimethyl-2,3-dihydro-1,3-thiazol-2-ylidene]-5-chloro-2-methanesulfonamidobenzene-1-sulfonamide]
[1]
  IC50: > 50 µM
[3]
  IC50: > 50 µM
[2]
  IC50: > 50 µM

## COc1ccccc1S(=O)(=O)/N=c1\sc(C(C)(C)C)c(C)n1C [N-(5-tert-Butyl-3,4-dimethyl-1,3-thiazol-2(3H)-ylidene)-2-methoxybenzenesulfonamide]
[1]; pH 8.4, 37 °C
  IC50: > 50 µM
[2]; pH 8.4, 37 °C
  IC50: 50 µM

## Cc1c(C(C)(C)C)s/c(=N\S(=O)(=O)c2cc(Cl)ccc2O)n1C [N-(5-tert-Butyl-3,4-dimethyl-1,3-thiazol-2(3H)-ylidene)-5-chloro-2-hydroxybenzenesulfonamide]
[1]
  IC50: 1.1 µM
[3]
  IC50: 0.011 µM
[2]
  IC50: 0.032 µM

## CC(C)c1s/c(=N\S(=O)(=O)c2cc(C#N)ccc2C#N)n(C)c1Cl [N-(4-Chloro-5-isopropyl-3-methyl-1,3-thiazol-2(3H)-ylidene)-2,5-dicyanobenzenesulfonamide]
[1]
  IC50: 3 µM
[3]
  IC50: 0.21 µM
[2]
  IC50: 0.0095 µM
